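In this assay, cells in 96-well plates receive the compound at five concentrations for 48 hours. Endpoints are linearly interpolated between the surrounding concentrations. The concentration for 50% growth inhibition is given as GI50.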 Calls of active or inactive are those of the source. No stated cut-off is given here; in the data, active = GI50 up to about 1.1 µM and inactive = higher.
Experiments:
Assay in all cases: growth of human tumour cells (NCI), 48 h
786-0 = test system: 786-0
EKVX = test system: EKVX
A498 = test system: A498
NCI-H23 = test system: NCI-H23
CAKI-1 = test system: CAKI-1
UACC-257 = test system: UACC-257
SF-539 = test system: SF-539
U-251 = test system: U-251
NCI-H522 = test system: NCI-H522
MDA-N = test system: MDA-N
CCRF-CEM = test system: CCRF-CEM
SF-295 = test system: SF-295
RXF 393 = test system: RXF 393
OVCAR-3 = test system: OVCAR-3
UACC-62 = test system: UACC-62
OVCAR-4 = test system: OVCAR-4
MDA-MB-231 = test system: MDA-MB-231
UO-31 = test system: UO-31
SK-MEL-2 = test system: SK-MEL-2
SW-620 = test system: SW-620
HOP-62 = test system: HOP-62
HT-29 = test system: HT-29
NCI-H460 = test system: NCI-H460
Hs-578T = test system: Hs-578T
A549 = test system: A549
IGROV-1 = test system: IGROV-1
MOLT-4 = test system: MOLT-4
COLO 205 = test system: COLO 205
OVCAR-5 = test system: OVCAR-5
HCT-15 = test system: HCT-15
T47D = test system: T47D
HL-60 = test system: HL-60
SR = test system: SR
TK-10 = test system: TK-10
NCI-H226 = test system: NCI-H226
KM12 = test system: KM12
RPMI-8226 = test system: RPMI-8226
DU-145 = test system: DU-145
SN12C = test system: SN12C
SF-268 = test system: SF-268
MDA-MB-435 = test system: MDA-MB-435
HCC 2998 = test system: HCC 2998
ACHN = test system: ACHN
SK-OV-3 = test system: SK-OV-3
NCI/ADR-RES = test system: NCI/ADR-RES
SNB-19 = test system: SNB-19
PC-3 = test system: PC-3
M14 = test system: M14
OVCAR-8 = test system: OVCAR-8
HCT-116 = test system: HCT-116
SK-MEL-5 = test system: SK-MEL-5
K562 = test system: K562
MCF7 = test system: MCF7
LOX IMVI = test system: LOX IMVI
BT-549 = test system: BT-549
HOP-92 = test system: HOP-92
SK-MEL-28 = test system: SK-MEL-28
Malme-3M = test system: Malme-3M

Measured: GI50

O=Cc1ccc2ccocc1-2
> 100 µM: HCT-15
inactive: 786-0 > 100 µM | EKVX > 100 µM | A498 > 100 µM | NCI-H23 > 100 µM | CAKI-1 > 100 µM | UACC-257 > 100 µM | SF-539 > 100 µM | U-251 > 100 µM | NCI-H522 > 100 µM | MDA-N > 100 µM | CCRF-CEM > 100 µM | SF-295 > 100 µM | RXF 393 > 100 µM | OVCAR-3 > 100 µM | UACC-62 > 100 µM | OVCAR-4 > 100 µM | MDA-MB-231 > 100 µM | UO-31 > 100 µM | SK-MEL-2 > 100 µM | SW-620 > 100 µM | HOP-62 > 100 µM | HT-29 > 100 µM | NCI-H460 > 100 µM | Hs-578T > 100 µM | A549 > 100 µM | IGROV-1 > 100 µM | MOLT-4 > 100 µM | COLO 205 > 100 µM | OVCAR-5 > 100 µM | T47D > 100 µM | HL-60 > 100 µM | SR > 100 µM | TK-10 > 100 µM | NCI-H226 > 100 µM | KM12 > 100 µM | RPMI-8226 > 100 µM | DU-145 > 100 µM | SN12C > 100 µM | SF-268 > 100 µM | MDA-MB-435 > 100 µM | HCC 2998 > 100 µM | ACHN > 100 µM | SK-OV-3 > 100 µM | NCI/ADR-RES > 100 µM | SNB-19 > 100 µM | PC-3 > 100 µM | M14 > 100 µM | OVCAR-8 > 100 µM | HCT-116 > 100 µM | SK-MEL-5 > 100 µM | K562 > 100 µM | MCF7 > 100 µM | LOX IMVI > 100 µM | BT-549 > 100 µM | HOP-92 > 100 µM

O=C1c2ccccc2C(=O)N1CCSCC(CO)SCCN1C(=O)c2ccccc2C1=O (stereo not drawn)
> 100 µM: HCT-15
inactive: 786-0 > 100 µM | EKVX 91 µM | A498 > 100 µM | NCI-H23 > 100 µM | CAKI-1 > 100 µM | UACC-257 > 100 µM | U-251 > 100 µM | NCI-H522 62.5 µM | MDA-N > 100 µM | CCRF-CEM 59.8 µM | SF-295 > 100 µM | RXF 393 > 100 µM | UACC-62 90.2 µM | OVCAR-4 48.6 µM | MDA-MB-231 > 100 µM | UO-31 > 100 µM | SK-MEL-2 > 100 µM | SW-620 > 100 µM | HOP-62 > 100 µM | HT-29 > 100 µM | NCI-H460 > 100 µM | Hs-578T > 100 µM | A549 > 100 µM | IGROV-1 > 100 µM | MOLT-4 74 µM | COLO 205 > 100 µM | OVCAR-5 > 100 µM | T47D 86.9 µM | HL-60 9.98 µM | SR > 100 µM | TK-10 > 100 µM | SK-MEL-28 > 100 µM | NCI-H226 > 100 µM | KM12 > 100 µM | RPMI-8226 80.2 µM | DU-145 > 100 µM | SN12C > 100 µM | SF-268 > 100 µM | MDA-MB-435 > 100 µM | HCC 2998 > 100 µM | ACHN > 100 µM | SK-OV-3 > 100 µM | NCI/ADR-RES 74.8 µM | SNB-19 > 100 µM | PC-3 > 100 µM | M14 96.8 µM | OVCAR-8 > 100 µM | HCT-116 > 100 µM | SK-MEL-5 > 100 µM | K562 75.3 µM | MCF7 > 100 µM | Malme-3M > 100 µM | LOX IMVI > 100 µM | BT-549 > 100 µM | HOP-92 > 100 µM

CN(C)c1ccc(/C=C/c2ccc3ccccc3[n+]2C)cc1
6.65 µM: HCT-15
inactive: 786-0 6.76 µM | EKVX 1.62 µM | A498 20.1 µM | NCI-H23 1.48 µM | SF-539 5.24 µM | U-251 2.38 µM | MDA-N 2.03 µM | CCRF-CEM 1.66 µM | SF-295 2.95 µM | RXF 393 2.81 µM | OVCAR-3 2.97 µM | UACC-62 3.62 µM | MDA-MB-231 3.28 µM | UO-31 2.07 µM | SK-MEL-2 1.48 µM | SW-620 2.12 µM | HOP-62 7.13 µM | HT-29 3.37 µM | NCI-H460 3.64 µM | Hs-578T 20.4 µM | A549 3.13 µM | IGROV-1 3.54 µM | MOLT-4 1.47 µM | OVCAR-5 7.01 µM | T47D 1.63 µM | HL-60 1.34 µM | SR 1.77 µM | TK-10 5.16 µM | SK-MEL-28 3.87 µM | NCI-H226 3.13 µM | KM12 3.42 µM | DU-145 1.67 µM | SN12C 2.96 µM | SF-268 4.45 µM | MDA-MB-435 4.21 µM | HCC 2998 4.13 µM | ACHN 5.62 µM | SK-OV-3 5.73 µM | NCI/ADR-RES > 100 µM | SNB-19 4.31 µM | PC-3 1.57 µM | M14 4.12 µM | OVCAR-8 1.39 µM | HCT-116 1.81 µM | SK-MEL-5 3.06 µM | MCF7 1.64 µM | Malme-3M 4.53 µM | BT-549 1.2 µM | HOP-92 1.99 µM
active: K562 0.891 µM

Source: ChEMBL document CHEMBL1201862, “PubChem BioAssay data set” (2004)
